The source of these data is patent US20150031686A1, “PHENYL-OXAZOLYL DERIVATIVES, PREPARATION METHOD THEREOF, AND RELATED APPLICATION OF THE PHENYL-OXAZOLYL DERIVATIVES AS AN IMPDH INHIBITOR” (INSTITUTE OF MEDICINAL BIOTECHNOLOGY, CHINESE ACADEMY OF …, priority 2012, published 2015).

The IC50 is the concentration needed to halve the response being measured. Read a low IC50 as greater potency in that assay.

Values after ≈ are worked out from the molar mass of the structure shown.

The assay concerns Coxsackie virus type B3 (COX-B3). Kind of assay: Anti-Coxsackie virus type B3 (COX-B3) activity, CPE in Vero cells. The following applies: Reed-Muench. It counts as cell-based. The protocol: With Vero (African green monkey kidney) cells as viral hosts, inhibitory effects of the compounds of present invention on the grades of pathological lesions by coxsackievirus B3 (COX-B3), B6 (COX-B6) viruses in Vero cells were determined. The measured results of viral inhibitory activity of the compounds are shown in Table 3 and Table 4; wherein RBV is the control drug ribavirin. The inhibitory activities of the measured compounds against coxsackievirus B3, B6 were stronger than the control.
Screening of Anti-B3, B6 Type Coxsackie Viruses (COX-B3, COX-B6) Activity of the Samples
Prepare stock solutions of COX-B3 (or COX-B6) virus strains as well as tested compounds in DMSO before use. Before tests, dilute the stock solution with culture solution into a certain concentration and then dilute 3 times to make a total of eight dilutions. Use ribavirin (RBV) as positive control. Test procedures are as follows: seed Vero cells into 96-well culture plates, infect with 10^−5 Coxsackie virus of B3 (or B6) type, 24 hours later; adsorb subsequently for 2 hours, then discard the virus solution, add in the sample compounds and the positive control according to the abovementioned dilutions, set cell control wells and virus control wells simultaneously. When the cytopathic effect (CPE) of cells in the virus control wells reach 4+, observe CPE of the cells in each group. Use Reed-Muench method to calculate 50% inhibitory concentration (IC50) of the sample compounds against coxsackie virus B3 (or B6) type.
The compound `COc1cc(NCc2nc3ccccc3s2)ccc1-c1cnco1` [Compound 8, N-(benzothiazol-2-ylmethyl)-3-methoxy-4-(oxazol-5-yl) aniline] gave an IC50 of 0.45 µg/mL (≈ 1.33 µM).
Same read-out and setting: for `COc1cc(N(C)Cc2csc(C)c2)ccc1-c1cnco1` [Compound 12, N-methyl-N-(5-methylthien-3-ylmethyl)-3-methoxy-4-(oxazol-5-yl) aniline] the value was 0.23 µg/mL (≈ 0.732 µM).
For `C#CCN(Cc1cc(CC)sc1C)c1ccc(-c2cnco2)c(OC)c1` [Compound 13, N-(5-ethyl-2-methylthien-3-ylmethyl)-N-(3-methoxy-4-oxazole-5-phenyl) propyn-2-ylamine], the “IC50, anti-Coxsackie virus type B3 (COX-B3)” value amounted to 0.30 µg/mL (≈ 0.819 µM).
Compound `COc1cc(NCc2csc(Cl)c2)ccc1-c1cnco1` [Compound 14, N-(5-chlorothien-3-ylmethyl)-3-methoxy-4-(oxazol-5-yl) aniline] gave a half-inhibitory concentration (IC50) of 0.44 µg/mL (≈ 1.37 µM).
On the same count and under the same terms, for `COc1cc(NCc2csc(Br)c2)ccc1-c1cnco1` [Compound 15, N-(5-bromothien-3-ylmethyl)-3-methoxy-4-(oxazol-5-yl) aniline] the value was 0.46 µg/mL (≈ 1.26 µM); for `COc1cc(NCc2csc(-c3ccccc3)c2)ccc1-c1cnco1` [Compound 16, N-(5-phenylthien-3-ylmethyl)-3-methoxy-4-(oxazol-5-yl) aniline], 0.45 µg/mL (≈ 1.24 µM).
`COc1cc(NCc2cncn2C)ccc1-c1cnco1` [Compound 17, N-(1-methyl-1H-imidazol-5-ylmethyl)-3-methoxy-4-(oxazol-5-yl) aniline] returned a half-inhibitory concentration (IC50) of 2.56 µg/mL (≈ 9 µM).
Same read-out and setting: for `COc1cc(CNc2ccc(-c3cnco3)c(OC)c2)cs1` [Compound 18, N-(5-methoxy-thien-3-ylmethyl)-3-methoxy-4(oxazol-5-yl) aniline] the value was 0.25 µg/mL (≈ 0.79 µM); for `COc1cc(/N=C/c2csc(C)c2)ccc1-c1cnco1` [Compound 19, N-(5-methylthien-3-ylmethylene)-3-methoxy-4-(oxazol-5-yl) aniline], 12.8 µg/mL (≈ 43 µM).
Compound `COc1ccc(-c2cnco2)cc1NCc1c(C)noc1C` [Compound 23, N-(3,5-dimethylisoxazol-4-ylmethyl)-2-methoxy-5-(oxazol-5-yl) aniline] returned a half-inhibitory concentration (IC50) of 0.76 µg/mL (≈ 2.54 µM).
On the same count and under the same terms, the result for `COc1ccc(-c2cnco2)cc1NCc1ccc(CCl)s1` [Compound 24, N-(5-chloromethylthien-2-ylmethyl)-2-methoxy-5-(oxazol-5-yl) aniline] reads 0.57 µg/mL (≈ 1.7 µM).
The compound `COc1ccc(-c2cnco2)cc1NCc1ccc(CBr)s1` [Compound 25, N-(5-bromomethylthien-2-ylmethyl)-2-methoxy-5-(oxazol-5-yl) aniline] showed a half-inhibitory concentration (IC50) of 0.53 µg/mL (≈ 1.4 µM).
Consider `COc1ccc(-c2cnco2)cc1NCc1ccc(-c2ccccc2)s1` [Compound 26, N-(5-phenylthien-2-ylmethyl)-2-methoxy-5-(oxazol-5-yl) aniline], for which half-maximal inhibition (IC50) required 0.57 µg/mL (≈ 1.57 µM). The IC50 values of the last two compounds are within 1.5-fold of each other.
On the same count and under the same terms, for `COc1ccc(-c2cnco2)cc1NCc1c(C)nn(C)c1Cl` [Compound 27, N-(5-chloro-1,3-dimethyl-1H-pyrazol-4-ylmethyl)-2-methoxy-5-(oxazol-5-yl) aniline] the value was 1.47 µg/mL (≈ 4.42 µM); for `COc1ccc(-c2cnco2)cc1NCc1cnn(-c2ccccc2)n1` [Compound 28, N-(2-phenyl-2H-1,2,3-triazol-4-ylmethyl)-(2-methoxy-5-oxazole-5-yl) aniline], 1.23 µg/mL (≈ 3.54 µM).
On to `COc1ccc(-c2cnco2)cc1/N=C/c1cc(Cl)cs1` [Compound 29, N-(4-chlorothien-2-ylmethylene)-2-methoxy-5-(oxazol-5-yl)-aniline], for which the IC50 amounted to 10.7 µg/mL (≈ 33.5 µM).
Turning to `COc1ccc(-c2cnco2)cc1NCc1cc2cc(Cl)ccc2s1` [Compound 30, N-(5-chlorobenzothien-2-ylmethyl)-2-methoxy-5-(oxazol-5-yl) aniline], the IC50 was 0.54 µg/mL (≈ 1.46 µM).
For `COc1ccc(-c2cnco2)cc1NCc1ccsc1` [Compound 31, N-(thien-3-ylmethyl)-2-methoxy-5-(oxazol-5-yl) aniline], the IC50 amounted to 0.88 µg/mL (≈ 3.07 µM).
The same measure, in the same setting: the result for `CCC(=O)N(Cc1csc(C)c1)c1cc(-c2cnco2)ccc1OC` [Compound 32] reads 0.68 µg/mL (≈ 1.91 µM); that for `COc1ccc(-c2cnco2)cc1NCC1CCN(C)CC1` [Compound 33, N-(2-methoxy-5-oxazol-5-ylphenyl)-1-methylpiperidin-4-yl methylamine], 0.64 µg/mL (≈ 2.12 µM).
Same read-out and setting: the result for `COc1ccc(-c2cnco2)cc1NCc1csc(Cl)c1` [Compound 34, N-(5-chlorothien-3-ylmethyl)-2-methoxy-5-(oxazol-5-yl) aniline] reads 0.57 µg/mL (≈ 1.78 µM); that for `COc1ccc(-c2cnco2)cc1NCc1csc(Br)c1` [Compound 35, N-(5-bromothien-3-ylmethyl)-2-methoxy-5-(oxazol-5-yl) aniline], 0.57 µg/mL (≈ 1.56 µM); that for `COc1ccc(-c2cnco2)cc1NCc1csc(-c2ccccc2)c1` [Compound 36, N-(5-phenylthien-3-ylmethyl)-2-methoxy-5-(oxazol-5-yl) aniline], 0.59 µg/mL (≈ 1.63 µM).
Same read-out and setting: the result for `COc1ccc(-c2cnco2)cc1NCC1CCOCC1` [Compound 37, N-(tetrahydropyran-4-ylmethyl)-2-methoxy-5-oxazol-5-yl aniline] reads 0.63 µg/mL (≈ 2.18 µM); that for `COc1ccc(-c2cnco2)cc1NCc1cccnn1` [Compound 38, N-(pyridazin-3-yl-methyl)-2-methoxy-5-oxazol-5-yl aniline], 0.88 µg/mL (≈ 3.12 µM).
As to `COc1ccc(-c2cnco2)cc1/N=C/c1ccsc1` [Compound 39, N-(thien-3-ylmethylene)-2-methoxy-5-(oxazol-5-yl)-aniline], the IC50 amounted to 11.1 µg/mL (≈ 39.1 µM).
In turn, `COc1ccc(-c2cnco2)cc1NCc1csc2c(C)c(Br)ccc12` [Compound 40, N-(6-bromo-7-methyl-benzothien-3-ylmethyl)-2-methoxy-5-oxazol-5-yl aniline] had an IC50 of 0.26 µg/mL (≈ 0.606 µM).
With `COc1cc(NCc2c(Cl)nc(Cl)nc2Cl)ccc1-c1cnco1` [Compound 43, N-(2,4,6-trichloropyrimidin-5-ylmethyl)-3-methoxy-4-(oxazol-5-yl) aniline], the half-maximal inhibitory concentration (IC50) stood at 1.03 µg/mL (≈ 2.67 µM). Compared with the last compound, the IC50 is about 4-fold higher.
The same measure, in the same setting: the result for `COc1cc(NCc2ncc(Cl)nc2Cl)ccc1-c1cnco1` [Compound 44, N-(3,5-dichloroperazin-2-ylmethyl)-3-methoxy-4-(oxazol-5-yl) aniline] reads 0.69 µg/mL (≈ 1.96 µM); that for `COc1ccc(-c2cnco2)cc1NCc1ccc(Br)o1` [Compound 45, N-(5-bromofuran-2-ylmethyl)-2-methoxy-5-(oxazol-5-yl) aniline], 0.88 µg/mL (≈ 2.52 µM).
The same measure, in the same setting: the result for `COc1ccc(-c2cnco2)cc1NCc1ccc(-c2cccc(Cl)c2)o1` [Compound 46, N-[5-(3-chlorophenyl)-furan-2-ylmethyl]-2-methoxy-5-(oxazol-5-yl) aniline] reads 0.76 µg/mL (≈ 2 µM).
On the same count and under the same terms, for `COc1cc(NCc2ccc(C(=O)Nc3cc(OC)c(OC)c(OC)c3)o2)ccc1-c1cnco1` [Compound 47, N-2-(3,4,5-trimethoxyphenylaminocarbonyl) furan-5-ylmethyl 3-methoxy-4-(oxazol-5-yl)aniline] the value was 0.56 µg/mL (≈ 1.17 µM); for `COCc1ccc(CNc2cc(-c3cnco3)ccc2OC)o1` [Compound 48, N-(5-methoxymethylfuran-2-ylmethyl)-2-methoxy-5-(oxazol-5-yl) aniline], 0.5 µg/mL (≈ 1.59 µM).
Regarding `COc1ccc(-c2cnco2)cc1NCc1coc2ccccc12` [Compound 50, N-(benzofuran-3-ylmethyl)-2-methoxy-5-(oxazol-5-yl) aniline], inhibition was half-maximal at 0.46 µg/mL (≈ 1.44 µM) (IC50). This IC50 and that of the compound before are within 1.5-fold of each other.
The compound `COc1cc(NCc2cccn2C)ccc1-c1cnco1` [Compound 51, N-(1-methyl-1H-pyrrol-2-ylmethyl)-3-methoxy-4-(oxazol-5-yl) aniline] gave an IC50 of 2.47 µg/mL (≈ 8.72 µM).
`COc1cc(-c2cnco2)c(NCc2ccnc3ccccc23)cc1O` [Compound 58, 2-methoxy-4-(oxazol-5-yl)-5-[(quinolin-4-ylmethyl)-amino] phenol] displayed an IC50 of 3.22 µg/mL (≈ 9.27 µM).
On the same count and under the same terms, the result for `COc1ccc(-c2cnco2)cc1N` [Compound 67, 2-methoxy-5-(oxazol-5-yl) aniline] reads 1.88 µg/mL (≈ 9.88 µM); that for `COc1cc(NS(=O)(=O)c2ccc(C)cc2)ccc1-c1cnco1` [Compound 69], 0.98 µg/mL (≈ 2.85 µM); that for `COc1cc(NCCCS(=O)(=O)O)ccc1-c1cnco1` [Compound 70, 3-[3-methoxy-4-(oxazol-5-yl)-anilino]-1-propanesulfonic acid], 155 µg/mL (≈ 497 µM).
Still for that read-out and setting: the result for `COc1cc(NCCc2ccc(C)s2)ccc1-c1cnco1` [Compound 72, N-[2-(5-methylthien-2-yl)-ethyl]-3-methoxy-4-(oxazol-5-yl) aniline] reads 0.44 µg/mL (≈ 1.4 µM).
On the same count and under the same terms, for `COc1cc(NCCc2ccc(Br)s2)ccc1-c1cnco1` [Compound 73, N-[2-(5-bromothien-2-yl)-ethyl]-3-methoxy-4-(oxazol-5-yl) aniline] the value was 0.35 µg/mL (≈ 0.923 µM); for `COc1cc(NCCc2noc3ccccc23)ccc1-c1cnco1` [Compound 74, N-(1,2-benzisoxazol-3-ylethyl)-3-methoxy-4-(oxazol-5-yl) aniline], 0.63 µg/mL (≈ 1.88 µM); for `COc1cc(NCc2cccc3c2oc2ccccc23)ccc1-c1cnco1` [Compound 75, N-(dibenzofuran-4-ylmethyl)-3-methoxy-4-(oxazol-5-yl) aniline], 0.45 µg/mL (≈ 1.21 µM).
`COc1cc(CNCc2ccc(C)s2)ccc1-c1cnco1` [Compound 76, N-(5-methylthien-2-ylmethyl)-3-methoxy-4-(oxazol-5-yl) benzylamine] registered a 50% inhibitory concentration (IC50) of 0.24 µg/mL (≈ 0.763 µM).
